Assay results from patent US20110142866A1, “PEPTIDE ANALOGUES AND CONJUGATES THEREOF” (Eldrug S.A., priority 2007, published 2011).
“And” between values parts separate entries of the source, which are not always exact repeats. Equal values may be shown once. “Also recorded” adds a separate entry of the source.

Columns and labels:
[1] = system: respective peptides conjugated to BSA or KLH; assay: ELISA total IgG antibody responses to the respective peptide; assay type: in vivo, SJL/J mice; parameters: key to Antibody: −: negative; +/−: very weak; +: weak; ++: moderate; +++: strong
Procedure: Blood was collected and sera isolated from mice prior to and 4 weeks after immunization with CFA or 14 days after the last immunization with reduced mannan conjugates. MBP87-99 or [A^91, A^96]MBP87-99 peptides conjugated to BSA or KLH were coated onto polyvinyl chloride (PVC) microtiter plates at 10 μg/ml in 0.2 M NaHCO3 buffer, pH 9.6, 0/N at 4° C. Non-specific binding was blocked with 2% BSA for 1.0 h at RT. After washing (0.05 Tween 20/PBS), serial dilutions of sera were added and incubated for a further 2 h at RT. The plates were washed and bound antibody was detected using HRP-conjugated sheep anti-mouse antibody (1/1000 dilution in PBS) (Amersham, UK) and developed using 2,2′-azino-di(3-ethylbenzthiazoline)6-sulfonic acid (ABTS) (Sigma, UK). Absorbance at 405 nm was recorded using a Fluostar Optima microplate reader (BMG labtech, Offenburg, Germany).
ELISpot assays for IFN-γ and IL-4 secretion by T cells and ELISA assays for binding of sera to native MBP protein or peptide were carried out as previously described^3, 4, 20, 21. Mean values were compared using the Student's two-tailed t-test. P value threshold of p<0.01 indicates a statistically significant difference.

[2] = system: native bovine MBP protein; assay: ELISA cross reaction of sera with native MBP protein; assay type: in vivo; parameters: key to Cross reaction with native MBP / Ab Cross reaction with native MBP: −: negative; +/−: very weak; +: weak; ++: moderate; +++: strong; details: for Ab Cross reaction with native MBP: Table 3, peptide analogues emulsified in complete Freund's adjuvant; for cross reaction of sera with native MBP protein (in words): peptide conjugated to reduced mannan, 1/200 and 1/1,600 sera dilution; for Cross reaction with native MBP: Table 2, peptide analogues conjugated to reduced mannan-KLH
Procedure: Blood was collected and sera isolated from mice prior to and 2 weeks after immunization. MBP83-99 peptides conjugated to BSA were coated onto polyvinyl chloride (PVC) microtiter plates at 10 μg/ml or with 2.5 μg/ml native MBP bovine protein in 0.2 M NaHCO3 buffer, pH 9.6, overnight at 4′C and non-specific binding was blocked with 2% BSA for 1.0 hour at room temperature. After washing (0.05% Tween 20/PBS), serial dilutions of sera were added and incubated for a further 2.0 hours at room temperature. The plates were washed and bound antibody was detected using HRP-conjugated sheep anti-mouse antibody (1:1000 in PBS) (Amersham, UK) and developed using 2,2″-azino-di(3-ethylbenzthiazoline) sulphonate (ABTS) (Sigma, UK). Absorption at 405 nm was recorded using an ELISA microplate reader.

[3] = system: IFN-γ production induced by the native MBP83-99 peptide; assay: In vitro IFN-γ antagonism ELISpot; assay type: cell-based, SJL/J mice; parameters: key to Antagonism: −: negative; +/−: very weak; +: weak; ++: moderate; +++: strong; details: for Antagonism: Table 3, complete Freund's adjuvant
Procedure: Mice were immunized with native MBP83-99 peptide emulsified in CFA, and spleen cells were isolated 25 days later. The ability of cyclic mutant MBP83-99 peptide analogues to antagonize IFN-γ production was assessed by ELISpot analysis. The native MBP83-99 peptide was added together with cyclic mutated MBP83-99 analogues, and % IFN-γ inhibition is shown.
ELISpot assays are an ex vivo 18 h assay that measures IFN-γ secretion by T cells. […] The sensitivity of the assay is higher than limiting dilution analysis, FACscan analysis, or ELISA methods and can reliably detect precursor frequencies of antigen specific effectors of 1 in every 0.5 million cells. It is therefore an appropriate method to detect antigen specific cells. Here, we measured IFN-γ production generated by the native MBP83-99 peptide and assessed the % inhibition (antagonize) of IFN-γ produced in the presence of mutant peptide analogues.
Cyclic head-to-tail MBP83-99 single and double mutant analogues were tested for their ability to inhibit IFN-γ responses induced by the native agonist MBP83-99 peptide. Mice were immunized with the native agonist MBP83-99 peptide emulsified in complete Freund's adjuvant (CFA). Spleen cells were isolated 25 days later, and the ability of cyclic peptides to inhibit (antagonize) IFN-γ production was assessed in in vitro antagonism ELISpot assays (FIG. 8). The results are shown as % IFN-γ inhibition of each cyclic mutant peptide analogue, in comparison to the native MBP83-99 peptide alone. All cyclic peptide analogues inhibited IFN-γ production between 30% and 90%. […] However, the single mutant analogue cyclo(83-99)[A^91]MBP83-99 was the most efficient in inhibiting IFN-γ production induced by the native MBP83-99 peptide, up to 92%. On the basis of the ability of cyclo(83-99)[A^91]MBP83-99 peptide to inhibit (antagonize) IFN-γ production by T cells, we chose to examine its in vivo efficacy in SJL/J mice after emulsification in CFA or conjugation to reduced mannan.

[4] = Table 2, peptide analogues conjugated to reduced mannan-KLH
[5] = Table 3, peptide analogues emulsified in complete Freund's adjuvant
[6] = peptide conjugated to reduced mannan

| Molecule | IgG antibody responses (in words) ([1]; peptide emulsified in CFA) | Ab Cross reaction with native MBP [2] | cross reaction of sera with native MBP protein (in words) [2] | Antagonism [3] | Antibody [1, 4] | Antibody [1, 5] | subclass of the antibodies induced [1, 6] | total IgG antibody titer [1, 6] | Cross reaction with native MBP [2] | IgG antibody responses (in words) [1, 6] | cross reaction of sera with native MBP protein (in words) ([2]; listed as [A^91, R^96]MBP83-99) | % IFN-γ inhibition ([3]; spleen cells of mice immunized with native MBP83-99 in CFA, 25 days, cyclic analogue added together with native MBP83-99) |
| --- | --- | --- | --- | --- | --- | --- | --- | --- | --- | --- | --- | --- |
| CC[C@H](C)[C@@H]1NC(=O)[C@H](CC(N)=O)NC(=O)[C@H](CCCCN)NC(=O)[C@H](Cc2ccccc2)NC(=O)[C@H](Cc2ccccc2)NC(=O)[C@H](Cc2c[nH]cn2)NC(=O)[C@H](C(C)C)NC(=O)[C@H](C(C)C)NC(=O)[C@@H]2CCCN2C(=O)[C@H](CC(N)=O)NC(=O)[C@H](CCC(=O)O)NC(=O)[C@@H]2CCCN2C(=O)[C@H]([C@@H](C)O)NC(=O)[C@H](CCCNC(=N)N)NC(=O)[C@@H]2CCCN2C(=O)[C@H]([C@@H](C)O)NC(=O)[C@H](C(C)C)NC1=O [cyclo(83-99)MBP83-99, cyclo(83-99)E N P V V H F F K N I V T P R T P] | antibodies were generated | − | highly cross reacted |  |  |  |  |  |  |  |  |  |
| E N P V V H F F A N I V T P R T P (ENPVVHFFANIVTPRTP) [[A^91]MBP83-99] | able to induce IgG antibody responses | ++ | reacted moderately; also recorded: cross reacted weakly | ++ | + | ++ | IgG1 | 1/640 | + |  |  |  |
| E N P V V H F F E N I V T P R T P (ENPVVHFFENIVTPRTP) [[E^91]MBP83-99] |  | − | reacted moderately; also recorded: cross reacted weakly | ++ | +++ | ++ | IgG1 |  | + |  |  |  |
| E N P V V H F F F N I V T P R T P (ENPVVHFFFNIVTPRTP) [[F^91]MBP83-99] |  | − | did not react | ++ | +/− | ++ |  | 1/800 | − | weak |  |  |
| E N P V V H F F K N I V T P R T P (ENPVVHFFKNIVTPRTP) [MBP83-99, reference compound] | did not generate IgG antibodies | − | highly cross reacted; also recorded: cross reactive |  | +++ | − |  |  | +++ |  |  |  |
| E N P V V H F F R N I V T A R T P (ENPVVHFFRNIVTARTP) [[R^91, A^96]MBP83-99] |  | − | cross reactive | ++ | +++ | ++ | IgG1 |  | +++ |  | highly cross reacted |  |
| E N P V V H F F Y N I V T P R T P (ENPVVHFFYNIVTPRTP) [[Y^91]MBP83-99] |  | − | did not cross react | ++ | +++ | − | IgG1 |  | − |  |  |  |
| cyclo(83-99)E N P V V H F F A N I V T P R T P (ENPVVHFFANIVTPRTP; cyclised or stapled) [cyclo(83-99)[A^91]MBP83-99] | enhanced | − | reacted moderately | ++ | +/− | + |  | 1/800 and 1/1600 | + |  |  | up to 92% |
